Some test systems named below: CAKI-1 renal; HT29 colon; NCI-H460 lung; OVCAR-4 ovarian; NCI/ADR-RES ovarian; 786-0 renal; SN12C renal; SF-295 CNS; MOLT-4 leukemia; EKVX NSCLC.
Experiment in all cases: growth of human tumour cells (NCI), 48 h

Values joined by “and” are separate entries in the source; they are usually repeats but may differ in a detail not shown here. Equal values may be shown once.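 Compound exposure: 48 hours, 5 concentrations, 96-well plates. GI50: concentration for 50% inhibition of growth. Definition used: TGI = concentration required for complete inhibition of growth.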

Regarding `Cc1nc2sc3c(c2c(=O)[nH]1)CCCC3`, the TGI is above 100 µM in the test with CAKI-1 renal; above 100 µM in the test with HT29 colon; 86.1 µM in the test with NCI-H460 lung; above 100 µM with OVCAR-4 ovarian; above 100 µM in the test on NCI/ADR-RES ovarian; above 100 µM in the test on 786-0 renal. Besides, the TGI with SN12C renal, in the test with SF-295 CNS, in the test with MOLT-4 leukemia and in the test on EKVX NSCLC was above 100 µM each time.

Consider `O=C(Nc1ccc(-n2ccc3c(NC(=O)c4ccccc4)nccc32)cc1)Nc1ccc(Cl)c(Cl)c1`, for which the GI50 was 1.65 µM with CAKI-1 renal; 0.664 µM with HT29 colon; 0.358 µM with NCI-H460 lung; 1.55 µM with OVCAR-4 ovarian; 1.31 µM in the test with NCI/ADR-RES ovarian; 1.01 µM in the test with 786-0 renal. The GI50 was 2.01 µM in the test with SN12C renal, 0.877 µM in the test with SF-295 CNS, 0.908 µM in the test with MOLT-4 leukemia and 4.83 µM in the test with EKVX NSCLC. The TGI was 6.88 µM in the test on CAKI-1 renal; 2.33 µM with HT29 colon; 1.78 µM in the test with NCI-H460 lung; 3.86 µM in the test on OVCAR-4 ovarian; 4.52 µM with NCI/ADR-RES ovarian; 2.36 µM in the test on 786-0 renal. Moreover, the TGI in the test on SN12C renal came to 9.08 µM; in the test with SF-295 CNS it was 3.18 µM; with MOLT-4 leukemia, 8.56 µM; in the test on EKVX NSCLC, 44 µM.

Consider `O=C(Nc1ccc(F)cc1)c1cc(S(=O)(=O)Nc2nc3ccccc3o2)c(SCc2ccccc2)cc1Cl`, for which the GI50 was 18.4 µM with CAKI-1 renal; 27 µM with HT29 colon; 19.1 µM in the test with NCI-H460 lung; 26.9 µM in the test on OVCAR-4 ovarian; 22.8 µM in the test on NCI/ADR-RES ovarian; 18.5 µM with 786-0 renal. Besides, the GI50 was 16.4 µM in the test with SN12C renal, 15 µM in the test on SF-295 CNS, 19.5 µM with MOLT-4 leukemia and 17.1 µM in the test on EKVX NSCLC. Also, the TGI is 37.7 µM with CAKI-1 renal; above 100 µM in the test on HT29 colon; 43.5 µM in the test with NCI-H460 lung; 60.9 µM with OVCAR-4 ovarian; 54.4 µM with NCI/ADR-RES ovarian; 35.3 µM with 786-0 renal. Also, the TGI in the test on SN12C renal was found to be 31.6 µM; in the test with SF-295 CNS it was 29.2 µM; with MOLT-4 leukemia, 52.4 µM; with EKVX NSCLC it was 34 µM.

On to `CC[C@H]1CN2CCc3cc(OC)c(OC)cc3[C@@H]2C[C@@H]1C[C@H]1NCCc2c1[nH]c1ccc(O)cc21`, for which the TGI is 0.614 µM and 0.68 µM in the test with CAKI-1 renal; 0.0862 µM and 0.341 µM and 0.11 µM in the test with HT29 colon; 0.0912 µM and 0.395 µM and 0.0422 µM in the test with NCI-H460 lung; 0.0443 µM and 0.0436 µM and < 0.0124 µM with OVCAR-4 ovarian; 0.0741 µM and 0.136 µM and 0.19 µM with SN12C renal; 0.401 µM and 0.125 µM in the test with EKVX NSCLC. The GI50 was 0.0271 µM and 0.0332 µM in the test with HT29 colon; 0.0252 µM and 0.0398 µM with NCI-H460 lung; 0.0138 µM in the test with OVCAR-4 ovarian; 0.0161 µM with NCI/ADR-RES ovarian; 0.0246 µM and 0.0421 µM in the test with 786-0 renal; 0.0228 µM and 0.0349 µM with SN12C renal. Besides, the GI50 was 0.0323 µM and 0.246 µM with SF-295 CNS; 0.0117 µM and 0.0272 µM in the test on MOLT-4 leukemia; 0.0409 µM in the test on EKVX NSCLC.

Take `CCN1C(=O)N(CC)C2C1NN=c1s/c(=C3\C(=O)N(CC(C)(C)C)c4ccccc43)c(=O)n12` (stereo not drawn): the GI50 in the test on CAKI-1 renal is 1.84 µM; in the test on HT29 colon, 3.6 µM; in the test on NCI-H460 lung it was 3.39 µM; in the test on OVCAR-4 ovarian it was 7.77 µM; with NCI/ADR-RES ovarian, 2.61 µM; in the test on 786-0 renal it was 5.65 µM. Also, the GI50 in the test on SN12C renal was 2.21 µM; with SF-295 CNS it was 2.84 µM; in the test with MOLT-4 leukemia, 3.79 µM; with EKVX NSCLC, 5.07 µM. In addition, the TGI in the test with CAKI-1 renal came out at 22.2 µM; with HT29 colon, 17 µM; in the test with NCI-H460 lung, 13.4 µM; in the test with OVCAR-4 ovarian it was 66.6 µM; in the test on NCI/ADR-RES ovarian it was 13.3 µM; in the test on 786-0 renal it was 27.8 µM. In addition, the TGI in the test with SN12C renal was determined as 11.3 µM; with SF-295 CNS, 12.6 µM; with MOLT-4 leukemia, 40.3 µM; in the test with EKVX NSCLC, 54.2 µM.

With `NC(=O)c1cc(S(=O)(=O)Nc2nnc(-c3ccccc3)c(-c3ccccc3)n2)c(SCc2ccccc2)cc1Cl`, the GI50 is above 100 µM with CAKI-1 renal; above 46.2 µM with NCI-H460 lung; above 100 µM in the test with NCI/ADR-RES ovarian; above 100 µM in the test on 786-0 renal; above 50.8 µM in the test on SN12C renal; above 57.7 µM in the test on SF-295 CNS. In addition, the GI50 was 38.2 µM in the test on MOLT-4 leukemia and above 100 µM with EKVX NSCLC. In addition, the TGI in the test with CAKI-1 renal was above 100 µM; with HT29 colon, above 100 µM; in the test on NCI-H460 lung it was above 83.1 µM; in the test with OVCAR-4 ovarian, above 64.6 µM; in the test on NCI/ADR-RES ovarian it was above 100 µM; in the test with 786-0 renal, above 100 µM. Besides, the TGI in the test on SN12C renal was above 82.6 µM; in the test with SF-295 CNS, above 100 µM; in the test on MOLT-4 leukemia it was above 70.1 µM; in the test on EKVX NSCLC, above 100 µM.

On to `O[C@H](c1cc(C(F)(F)F)nc2c(C(F)(F)F)cccc12)[C@@H]1CCCCN1`, for which the GI50 in the test on CAKI-1 renal was 1.96 µM; in the test with HT29 colon it was 2.49 µM; in the test with NCI-H460 lung, 2.28 µM; in the test with OVCAR-4 ovarian it was 4.45 µM; in the test on NCI/ADR-RES ovarian it was 3.09 µM; with 786-0 renal it was 4.68 µM. Further, the GI50 in the test with SN12C renal was 4.19 µM; with SF-295 CNS, 2.08 µM; with MOLT-4 leukemia, 3.51 µM; with EKVX NSCLC, 4.32 µM. Moreover, the TGI with CAKI-1 renal came out at 7.29 µM; in the test on HT29 colon, 5.98 µM; in the test with NCI-H460 lung, 5.28 µM; in the test with OVCAR-4 ovarian it was 15 µM; in the test with NCI/ADR-RES ovarian it was 9.49 µM; in the test on 786-0 renal, 12.5 µM. Further, the TGI with SN12C renal was found to be 14 µM; in the test with SF-295 CNS it was 5.36 µM; with MOLT-4 leukemia, 11.1 µM; in the test with EKVX NSCLC, 17.3 µM.

`CSc1ccc2c(c1)C(=O)c1c-2n(CCCBr)c(=O)c2cc([N+](=O)[O-])ccc12`: the GI50 in the test with CAKI-1 renal is 1.09 µM; in the test with HT29 colon it was 28.2 µM; with NCI-H460 lung, 0.547 µM; in the test with OVCAR-4 ovarian it was above 100 µM; in the test with NCI/ADR-RES ovarian, 5.5 µM; in the test with 786-0 renal it was 2.45 µM. The GI50 in the test on SN12C renal is 0.893 µM; in the test with SF-295 CNS, 1.04 µM; in the test on MOLT-4 leukemia it was 0.558 µM; in the test with EKVX NSCLC, above 100 µM. Further, the TGI is 8.94 µM in the test on CAKI-1 renal; above 100 µM with HT29 colon; above 100 µM with NCI-H460 lung; above 100 µM in the test with OVCAR-4 ovarian; above 100 µM in the test with NCI/ADR-RES ovarian; 10.5 µM with 786-0 renal. Further, the TGI in the test on SN12C renal is 6.95 µM; with SF-295 CNS, above 100 µM; in the test on MOLT-4 leukemia, 17 µM; with EKVX NSCLC it was above 100 µM.

(Values after PubChem BioAssay (NCI).)
